The test deals with T1, N1RIS1_FUSC4 (CYP51 of TR4; Eburicol 14-alpha-demethylase) (Fusarium odoratissimum, UniProt N1RIS1).
T1 construct: gene FOC4_g10015154
T1 sequence (N1RIS1 1-527): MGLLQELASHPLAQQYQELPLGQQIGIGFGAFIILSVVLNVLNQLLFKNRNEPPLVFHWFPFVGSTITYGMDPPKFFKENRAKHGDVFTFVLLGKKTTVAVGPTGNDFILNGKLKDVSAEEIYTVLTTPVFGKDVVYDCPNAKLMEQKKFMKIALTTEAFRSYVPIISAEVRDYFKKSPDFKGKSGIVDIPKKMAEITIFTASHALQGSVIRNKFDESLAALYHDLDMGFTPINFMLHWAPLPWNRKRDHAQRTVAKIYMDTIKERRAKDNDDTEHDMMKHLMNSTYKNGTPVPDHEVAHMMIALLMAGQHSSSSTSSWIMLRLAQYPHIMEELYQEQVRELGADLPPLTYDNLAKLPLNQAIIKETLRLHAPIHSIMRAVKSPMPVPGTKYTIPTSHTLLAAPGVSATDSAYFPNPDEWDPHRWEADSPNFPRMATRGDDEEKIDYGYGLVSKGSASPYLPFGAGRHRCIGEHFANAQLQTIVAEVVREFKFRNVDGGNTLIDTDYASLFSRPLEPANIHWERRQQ
The experiment in a line: SPR (Biacore T200, protein amine-coupled on CM5 chip, […] kinetic fit). Type of test: binding. The following applies: 25 °C; 3.125-50 μM analyte. (In SPR one partner is held on a chip, and binding of the other changes the refractive index at the surface.)

Turning to `O[C@](Cc1ccccc1Cl)(Cn1[nH]cnc1=S)C1(Cl)CC1` [R-Pro], binding was put at a Kd of 0.342 nM.

For the origin of these results see article PMC8875126, “Mechanistic Insights into Stereospecific Antifungal Activity of Chiral Fungicide Prothioconazole against Fusarium oxysporum F. sp. cubense” (International Journal of Molecular Sciences, 2022).
